By AC50 is commonly meant the midpoint of the concentration-response curve, whichever way the signal moves.

Each structure is given as a SMILES string. Some results are limits rather than exact numbers.

These results are taken from ChEMBL document CHEMBL5291721, “A preclinical secondary pharmacology resource illuminates target-adverse drug reaction associations of marketed drugs” (Nat Commun, 2023).

The target in one experiment is Acetylcholinesterase (Homo sapiens, UniProt P22303). Type of experiment: functional.
Experiment [1] addresses T1, Alpha-2A adrenergic receptor (Homo sapiens, UniProt P08913).
T1 sequence (P08913 whole entry): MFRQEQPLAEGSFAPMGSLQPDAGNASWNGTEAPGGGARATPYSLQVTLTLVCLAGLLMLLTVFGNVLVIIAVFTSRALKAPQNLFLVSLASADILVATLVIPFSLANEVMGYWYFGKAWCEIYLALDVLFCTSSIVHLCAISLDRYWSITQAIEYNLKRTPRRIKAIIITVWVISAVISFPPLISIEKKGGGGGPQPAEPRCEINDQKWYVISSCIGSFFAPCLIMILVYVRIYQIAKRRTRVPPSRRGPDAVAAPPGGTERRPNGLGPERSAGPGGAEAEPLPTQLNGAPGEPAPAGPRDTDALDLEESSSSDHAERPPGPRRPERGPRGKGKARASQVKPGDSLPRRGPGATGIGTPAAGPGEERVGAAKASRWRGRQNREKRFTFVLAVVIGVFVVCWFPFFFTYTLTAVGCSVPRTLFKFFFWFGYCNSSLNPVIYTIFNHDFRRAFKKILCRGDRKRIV
It counts as functional, cell-based.

Experiment [2] concerns the target T1, Alpha-2A adrenergic receptor.
Experiment [3] deals with T2, Muscarinic acetylcholine receptor M2 (Homo sapiens, UniProt P08172).
T2 sequence (P08172 whole entry): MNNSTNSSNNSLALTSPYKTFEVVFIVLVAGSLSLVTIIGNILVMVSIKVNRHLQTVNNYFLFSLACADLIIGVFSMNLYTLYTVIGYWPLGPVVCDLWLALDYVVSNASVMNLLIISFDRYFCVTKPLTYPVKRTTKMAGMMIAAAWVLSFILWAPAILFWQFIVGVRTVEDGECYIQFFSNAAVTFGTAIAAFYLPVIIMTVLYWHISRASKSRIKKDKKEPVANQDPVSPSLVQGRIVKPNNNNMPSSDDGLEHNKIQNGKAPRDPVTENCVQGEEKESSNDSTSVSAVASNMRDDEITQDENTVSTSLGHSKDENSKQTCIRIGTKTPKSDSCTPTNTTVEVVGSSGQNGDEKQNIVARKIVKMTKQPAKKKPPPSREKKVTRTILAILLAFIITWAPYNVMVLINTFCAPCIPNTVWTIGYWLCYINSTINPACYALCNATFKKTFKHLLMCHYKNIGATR

The next experiment concerns the target Prothrombin (Homo sapiens, UniProt P00734). It counts as functional.
For a further experiment, the target named is Histamine H3 receptor (Homo sapiens, UniProt Q9Y5N1).
Experiment [4] addresses T3, 5-hydroxytryptamine receptor 1A (Homo sapiens, UniProt P08908).
T3 sequence (P08908 whole entry): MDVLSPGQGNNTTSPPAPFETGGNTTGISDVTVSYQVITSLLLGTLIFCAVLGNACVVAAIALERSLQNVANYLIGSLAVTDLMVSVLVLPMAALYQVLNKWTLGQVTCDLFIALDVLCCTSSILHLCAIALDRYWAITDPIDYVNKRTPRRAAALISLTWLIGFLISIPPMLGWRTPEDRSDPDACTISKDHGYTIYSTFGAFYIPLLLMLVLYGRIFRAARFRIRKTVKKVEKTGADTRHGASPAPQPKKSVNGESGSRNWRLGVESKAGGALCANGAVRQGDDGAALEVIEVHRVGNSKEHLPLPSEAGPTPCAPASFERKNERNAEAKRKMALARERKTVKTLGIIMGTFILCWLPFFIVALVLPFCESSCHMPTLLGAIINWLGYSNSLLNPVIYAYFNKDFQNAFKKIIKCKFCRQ

Experiment [5] deals with 5-hydroxytryptamine receptor 2B (Homo sapiens, UniProt P41595). It counts as functional, cell-based.
Experiment [6] addresses Voltage-gated inwardly rectifying potassium channel KCNH2 (Homo sapiens, UniProt Q12809). Type of experiment: functional.
Experiment [7] has as its target T4, Amine oxidase [flavin-containing] A (Homo sapiens, UniProt P21397).
T4 sequence (P21397 whole entry): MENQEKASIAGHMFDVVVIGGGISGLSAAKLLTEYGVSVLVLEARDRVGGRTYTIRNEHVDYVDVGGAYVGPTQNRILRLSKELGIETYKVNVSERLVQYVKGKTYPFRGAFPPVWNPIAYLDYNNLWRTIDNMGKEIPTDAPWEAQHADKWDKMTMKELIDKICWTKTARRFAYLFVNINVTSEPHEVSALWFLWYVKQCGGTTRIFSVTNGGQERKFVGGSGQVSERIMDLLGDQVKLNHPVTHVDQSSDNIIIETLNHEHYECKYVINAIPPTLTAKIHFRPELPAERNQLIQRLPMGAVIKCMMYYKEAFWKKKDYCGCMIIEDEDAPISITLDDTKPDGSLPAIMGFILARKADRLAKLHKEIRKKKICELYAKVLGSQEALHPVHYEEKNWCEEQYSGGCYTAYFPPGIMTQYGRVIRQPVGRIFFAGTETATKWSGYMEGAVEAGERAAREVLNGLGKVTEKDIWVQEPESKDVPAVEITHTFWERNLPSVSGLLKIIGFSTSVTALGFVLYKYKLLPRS
Type of experiment: functional.

Experiment [8] has as its target Kappa-type opioid receptor (Homo sapiens, UniProt P41145).
For experiment [9], the target named is cGMP-inhibited 3',5'-cyclic phosphodiesterase 3A (Homo sapiens, UniProt Q14432). Type of experiment: functional.
For experiment [10], the target named is 3',5'-cyclic-AMP phosphodiesterase 4A (Homo sapiens, UniProt P27815). Type of experiment: functional.
Experiment [11] addresses Sodium-dependent dopamine transporter (Homo sapiens, UniProt Q01959).
The target of experiment [12] is T5, Thromboxane A2 receptor (Homo sapiens, UniProt P21731).
T5 sequence (P21731 whole entry): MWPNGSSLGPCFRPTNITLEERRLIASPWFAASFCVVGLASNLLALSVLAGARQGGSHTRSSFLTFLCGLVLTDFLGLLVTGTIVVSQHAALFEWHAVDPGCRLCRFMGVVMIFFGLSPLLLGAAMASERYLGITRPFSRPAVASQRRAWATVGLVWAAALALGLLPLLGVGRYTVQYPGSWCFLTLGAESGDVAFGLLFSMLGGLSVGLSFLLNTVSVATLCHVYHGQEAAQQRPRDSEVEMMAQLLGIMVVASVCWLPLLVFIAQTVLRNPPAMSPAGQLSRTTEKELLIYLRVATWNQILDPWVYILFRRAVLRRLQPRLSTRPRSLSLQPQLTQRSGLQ
Type of experiment: functional, cell-based.

In experiment [13] the target is T5, Thromboxane A2 receptor. It counts as functional, cell-based. This is another data set of the same source.
Further: assay procedure not described here.

Voltage-gated inwardly rectifying potassium channel KCNH2, sequence (Q12809 whole entry): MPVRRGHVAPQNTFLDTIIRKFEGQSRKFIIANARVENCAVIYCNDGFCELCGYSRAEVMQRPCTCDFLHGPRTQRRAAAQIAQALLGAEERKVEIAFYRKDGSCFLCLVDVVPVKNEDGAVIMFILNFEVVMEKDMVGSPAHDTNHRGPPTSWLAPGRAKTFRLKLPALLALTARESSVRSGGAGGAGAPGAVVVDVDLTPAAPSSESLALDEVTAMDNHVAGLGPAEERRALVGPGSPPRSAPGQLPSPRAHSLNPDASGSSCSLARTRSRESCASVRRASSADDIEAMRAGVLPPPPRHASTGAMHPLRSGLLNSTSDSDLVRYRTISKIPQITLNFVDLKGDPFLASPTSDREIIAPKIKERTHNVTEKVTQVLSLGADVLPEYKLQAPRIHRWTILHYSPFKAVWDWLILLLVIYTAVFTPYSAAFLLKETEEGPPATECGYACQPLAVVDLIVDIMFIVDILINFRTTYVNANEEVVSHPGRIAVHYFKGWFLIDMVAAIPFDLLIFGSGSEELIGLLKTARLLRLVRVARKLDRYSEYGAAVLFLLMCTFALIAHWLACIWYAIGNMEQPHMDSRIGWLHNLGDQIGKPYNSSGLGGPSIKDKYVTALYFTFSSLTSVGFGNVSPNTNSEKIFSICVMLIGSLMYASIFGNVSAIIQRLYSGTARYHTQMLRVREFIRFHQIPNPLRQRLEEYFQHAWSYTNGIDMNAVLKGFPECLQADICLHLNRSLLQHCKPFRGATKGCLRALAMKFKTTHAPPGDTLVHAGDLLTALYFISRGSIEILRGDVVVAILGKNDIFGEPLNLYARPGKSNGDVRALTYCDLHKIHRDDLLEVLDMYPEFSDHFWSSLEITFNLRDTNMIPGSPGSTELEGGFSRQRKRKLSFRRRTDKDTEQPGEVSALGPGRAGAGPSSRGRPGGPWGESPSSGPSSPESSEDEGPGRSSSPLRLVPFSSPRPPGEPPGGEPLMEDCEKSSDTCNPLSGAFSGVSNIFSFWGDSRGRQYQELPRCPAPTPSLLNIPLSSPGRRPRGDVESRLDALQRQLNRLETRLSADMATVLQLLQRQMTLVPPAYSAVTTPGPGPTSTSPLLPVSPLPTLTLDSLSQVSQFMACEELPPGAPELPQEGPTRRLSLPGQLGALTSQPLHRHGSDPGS
cGMP-inhibited 3',5'-cyclic phosphodiesterase 3A, sequence (Q14432 whole entry): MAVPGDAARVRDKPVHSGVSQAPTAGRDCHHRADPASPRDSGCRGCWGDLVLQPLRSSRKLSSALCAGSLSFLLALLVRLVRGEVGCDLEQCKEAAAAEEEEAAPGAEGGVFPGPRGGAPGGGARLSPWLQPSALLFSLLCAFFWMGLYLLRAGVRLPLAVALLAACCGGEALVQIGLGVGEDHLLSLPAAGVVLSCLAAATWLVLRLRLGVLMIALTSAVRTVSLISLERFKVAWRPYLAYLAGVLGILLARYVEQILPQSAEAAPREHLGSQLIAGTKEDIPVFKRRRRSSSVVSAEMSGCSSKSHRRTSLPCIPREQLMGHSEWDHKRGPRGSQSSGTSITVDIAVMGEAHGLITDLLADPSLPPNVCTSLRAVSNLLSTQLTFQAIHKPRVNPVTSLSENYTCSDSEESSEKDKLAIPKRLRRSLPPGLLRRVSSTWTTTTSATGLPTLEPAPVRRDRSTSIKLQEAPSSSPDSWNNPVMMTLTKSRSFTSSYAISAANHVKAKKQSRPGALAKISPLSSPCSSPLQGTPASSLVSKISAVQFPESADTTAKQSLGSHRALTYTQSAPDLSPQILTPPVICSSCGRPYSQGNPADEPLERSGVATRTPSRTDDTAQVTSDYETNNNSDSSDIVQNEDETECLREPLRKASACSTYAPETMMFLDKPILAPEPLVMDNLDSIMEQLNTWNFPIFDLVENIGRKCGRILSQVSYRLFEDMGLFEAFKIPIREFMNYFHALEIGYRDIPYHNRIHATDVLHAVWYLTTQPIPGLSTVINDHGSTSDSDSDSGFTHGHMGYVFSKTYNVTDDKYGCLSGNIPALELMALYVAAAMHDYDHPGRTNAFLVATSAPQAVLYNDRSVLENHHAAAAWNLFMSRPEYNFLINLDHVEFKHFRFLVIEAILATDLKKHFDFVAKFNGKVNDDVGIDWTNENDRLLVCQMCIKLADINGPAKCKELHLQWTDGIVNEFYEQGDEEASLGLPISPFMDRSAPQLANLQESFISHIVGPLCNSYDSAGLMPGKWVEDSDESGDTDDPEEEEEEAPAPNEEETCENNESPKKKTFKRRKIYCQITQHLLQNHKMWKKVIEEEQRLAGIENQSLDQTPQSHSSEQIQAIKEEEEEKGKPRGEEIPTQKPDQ
Sodium-dependent dopamine transporter, sequence (Q01959 whole entry): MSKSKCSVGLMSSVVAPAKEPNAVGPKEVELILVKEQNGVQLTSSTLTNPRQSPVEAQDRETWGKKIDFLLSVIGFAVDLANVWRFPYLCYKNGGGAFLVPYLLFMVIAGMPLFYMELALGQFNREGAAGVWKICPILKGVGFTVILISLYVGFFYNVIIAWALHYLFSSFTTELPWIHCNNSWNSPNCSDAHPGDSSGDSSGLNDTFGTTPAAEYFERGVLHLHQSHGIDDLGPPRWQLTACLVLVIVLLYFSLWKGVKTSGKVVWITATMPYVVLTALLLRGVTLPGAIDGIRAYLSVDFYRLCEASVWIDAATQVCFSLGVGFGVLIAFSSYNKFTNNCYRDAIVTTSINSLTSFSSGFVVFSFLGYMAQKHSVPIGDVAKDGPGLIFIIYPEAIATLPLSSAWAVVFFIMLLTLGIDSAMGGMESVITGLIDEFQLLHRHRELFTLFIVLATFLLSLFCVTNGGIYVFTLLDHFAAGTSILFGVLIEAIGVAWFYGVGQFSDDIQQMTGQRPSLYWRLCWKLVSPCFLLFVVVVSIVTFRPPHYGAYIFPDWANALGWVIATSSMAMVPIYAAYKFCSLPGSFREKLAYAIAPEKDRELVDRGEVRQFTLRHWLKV
Histamine H3 receptor, sequence (Q9Y5N1 whole entry): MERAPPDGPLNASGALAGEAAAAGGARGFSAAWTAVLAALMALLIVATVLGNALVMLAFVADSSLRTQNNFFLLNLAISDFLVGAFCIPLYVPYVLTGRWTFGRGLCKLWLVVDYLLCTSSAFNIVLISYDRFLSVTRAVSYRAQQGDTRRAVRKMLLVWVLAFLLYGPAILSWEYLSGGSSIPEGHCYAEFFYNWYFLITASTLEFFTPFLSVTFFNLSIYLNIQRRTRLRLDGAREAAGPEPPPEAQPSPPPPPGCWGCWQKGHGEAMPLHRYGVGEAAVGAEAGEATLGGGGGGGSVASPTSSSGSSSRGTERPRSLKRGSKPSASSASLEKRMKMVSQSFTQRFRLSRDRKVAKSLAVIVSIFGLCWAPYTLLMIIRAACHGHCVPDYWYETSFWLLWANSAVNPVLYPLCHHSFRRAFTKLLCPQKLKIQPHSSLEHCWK
3',5'-cyclic-AMP phosphodiesterase 4A, sequence (P27815 whole entry): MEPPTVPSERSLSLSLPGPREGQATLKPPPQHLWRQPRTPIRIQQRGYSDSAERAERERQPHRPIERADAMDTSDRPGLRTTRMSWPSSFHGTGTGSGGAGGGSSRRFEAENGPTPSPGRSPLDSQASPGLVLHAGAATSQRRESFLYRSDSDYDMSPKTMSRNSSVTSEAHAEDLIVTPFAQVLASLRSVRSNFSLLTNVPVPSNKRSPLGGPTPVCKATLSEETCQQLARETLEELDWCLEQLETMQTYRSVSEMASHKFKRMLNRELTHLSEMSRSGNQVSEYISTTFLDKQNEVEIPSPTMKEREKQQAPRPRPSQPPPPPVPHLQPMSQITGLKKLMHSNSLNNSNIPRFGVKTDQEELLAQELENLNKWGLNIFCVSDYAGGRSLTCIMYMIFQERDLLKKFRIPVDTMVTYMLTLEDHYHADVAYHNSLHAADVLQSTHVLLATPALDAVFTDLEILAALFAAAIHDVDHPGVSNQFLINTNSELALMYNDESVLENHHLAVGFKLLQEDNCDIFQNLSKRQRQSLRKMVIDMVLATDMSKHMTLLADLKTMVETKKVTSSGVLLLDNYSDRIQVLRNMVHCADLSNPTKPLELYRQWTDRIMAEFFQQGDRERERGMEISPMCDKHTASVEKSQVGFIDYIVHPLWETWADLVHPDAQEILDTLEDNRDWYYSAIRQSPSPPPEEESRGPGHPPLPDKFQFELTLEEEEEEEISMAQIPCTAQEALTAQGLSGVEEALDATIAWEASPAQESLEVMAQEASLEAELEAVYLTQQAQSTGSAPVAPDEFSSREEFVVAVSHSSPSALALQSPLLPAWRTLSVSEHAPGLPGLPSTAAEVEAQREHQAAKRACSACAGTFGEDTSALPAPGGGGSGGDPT
5-hydroxytryptamine receptor 2B, sequence (P41595 whole entry): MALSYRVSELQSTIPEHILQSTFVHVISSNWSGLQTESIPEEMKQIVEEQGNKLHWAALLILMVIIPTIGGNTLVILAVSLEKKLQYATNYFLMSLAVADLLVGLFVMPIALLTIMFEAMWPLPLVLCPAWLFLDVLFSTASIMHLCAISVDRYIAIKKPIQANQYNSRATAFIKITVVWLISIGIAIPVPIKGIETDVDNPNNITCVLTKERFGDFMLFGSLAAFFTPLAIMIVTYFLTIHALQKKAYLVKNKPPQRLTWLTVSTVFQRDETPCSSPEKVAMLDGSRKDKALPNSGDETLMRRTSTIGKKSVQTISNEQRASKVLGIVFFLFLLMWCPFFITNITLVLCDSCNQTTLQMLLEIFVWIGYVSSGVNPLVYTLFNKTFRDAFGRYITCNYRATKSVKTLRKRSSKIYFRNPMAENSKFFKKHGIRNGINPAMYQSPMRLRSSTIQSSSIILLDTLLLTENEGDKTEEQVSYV

Turning to `NC[C@H]1CC[C@H](C(=O)Oc2ccc(CCC(=O)O)cc2)CC1` [CETRAXATE], the AC50 on Acetylcholinesterase is over 30 µM; in [1], over 30 µM; in [2] it was over 30 µM; in experiment [3], over 30 µM; on Prothrombin it was 4.35 µM; at Histamine H3 receptor, over 30 µM. Further, the AC50 in experiment [4], in experiment [5], in experiment [6], in experiment [7], in experiment [8] and in experiment [9] was over 30 µM each time. Besides, the AC50 (in experiment [10]; in experiment [11]; at Thromboxane A2 receptor [12]; on Thromboxane A2 receptor [13]) was over 30 µM each time.

For the compound `CC(O)(CS(=O)(=O)c1ccc(F)cc1)C(=O)Nc1ccc(C#N)c(C(F)(F)F)c1` (stereo not drawn) [BICALUTAMIDE], the AC50 at Acetylcholinesterase is over 30 µM; in [1], over 10 µM; in experiment [2], over 30 µM; in experiment [3] it was over 30 µM; on Prothrombin it was over 30 µM; at Histamine H3 receptor, over 30 µM. Also, the AC50 is over 30 µM in experiment [4]; over 30 µM in [5]; over 30 µM in [6]; over 30 µM in experiment [7]; over 10 µM in experiment [8]; over 30 µM in experiment [9]. Also, the AC50 in [10] was over 30 µM; in [11] it was over 30 µM; at Thromboxane A2 receptor [12], over 10 µM; on Thromboxane A2 receptor [13] it was over 3 µM.

As to `COC(=O)[C@H]1[C@H]2C[C@@H]3c4[nH]c5cc(OC)ccc5c4CCN3C[C@H]2C[C@@H](OC(=O)c2cc(OC)c(OC)c(OC)c2)[C@@H]1OC` [RESERPINE], the AC50 on Acetylcholinesterase is over 30 µM; in experiment [1], over 10 µM; in experiment [2] it was over 30 µM; in experiment [3], over 30 µM; at Prothrombin, over 30 µM; on Histamine H3 receptor it was over 30 µM. Further, the concentration at half-maximal activity (AC50) in experiment [4] was over 30 µM; in [5] it was over 30 µM; in experiment [6] it was 1.46 µM; in experiment [7], over 30 µM; in [8], 11.7 µM; in [9], over 3 µM. The AC50 was over 3 µM in experiment [10], 29.3 µM in experiment [11], over 30 µM on Thromboxane A2 receptor [12] and over 30 µM on Thromboxane A2 receptor [13].
